Results on 50 compounds are retold here after BindingDB's records for doi:10.7270/Q2ZC817P (The Scripps Research Institute Molecular Screening Center, 2007).

SMILES strings stand for the structures.

For the first assay, the target named is Sphingosine 1-phosphate receptor 1 (Homo sapiens, UniProt P21453). The experiment in a line: S1P1 agonism potentiation – cell-based, potentiator mode, 60K MLSMR set, dose response (AID 466).
Chain of Sphingosine 1-phosphate receptor 1 (P21453 whole entry): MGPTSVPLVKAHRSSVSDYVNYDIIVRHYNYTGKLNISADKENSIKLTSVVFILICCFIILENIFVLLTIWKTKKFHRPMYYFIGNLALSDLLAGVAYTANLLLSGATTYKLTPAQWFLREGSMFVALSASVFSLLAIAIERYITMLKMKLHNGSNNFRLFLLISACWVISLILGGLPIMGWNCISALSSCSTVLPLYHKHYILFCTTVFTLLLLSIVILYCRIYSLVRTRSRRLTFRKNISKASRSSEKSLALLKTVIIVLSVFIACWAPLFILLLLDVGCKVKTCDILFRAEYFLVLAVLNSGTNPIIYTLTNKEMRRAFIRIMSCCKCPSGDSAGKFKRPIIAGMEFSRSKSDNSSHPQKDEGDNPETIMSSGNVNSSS
Details: not given
Usually EC50 stands for the concentration at which the effect is half-maximal. Turning to `COC(=O)c1cc(CSc2nnc(-c3ccccc3)c(-c3ccccc3)n2)oc1C` [5-[[(5,6-diphenyl-1,2,4-triazin-3-yl)thio]methyl]-2-methyl-3-furancarboxylic acid methyl ester], the EC50 turned out to be 1.05 µM. In the case of `CCCc1ccc(OCc2nc(-c3ccc(NC(=O)c4ccco4)cc3)no2)cc1` [MLS000097352], the concentration giving a half-maximal response (EC50) stood at 4.08 µM. On the same count and under the same terms, the figure for `Fc1ccc2[nH]c3c(N4CCN(c5ccccc5)CC4)ncnc3c2c1` is 9.52 µM; for `c1ccc(CSc2nnc(-c3c[nH]c4ccccc34)o2)cc1` it is 1.59 µM. As for `CCN(C1CCCCC1)S(=O)(=O)c1ccc(S(=O)(=O)NCc2ccncc2)cc1` [4-N-cyclohexyl-4-N-ethyl-1-N-(pyridin-4-ylmethyl)benzene-1,4-disulfonamide], the EC50 turned out to be 7.02 µM. For the compound `CCOc1ccc(C2CC(c3cccc(OC)c3OC)n3nnnc3N2)cc1Cl` (stereo not given) [5-(3-chloranyl-4-ethoxy-phenyl)-7-(2,3-dimethoxyphenyl)-1,5,6,7-tetrahydro-[1,2,3,4]tetrazolo[1,5-a]pyrimidine], the 50% effective concentration (EC50) stood at 68.9 µM. `Cc1ccc(-c2csc(N3CCC(NS(=O)(=O)c4ccc5c(c4)OCCO5)CC3)n2)cc1` [N-[1-[4-(4-methylphenyl)-1,3-thiazol-2-yl]piperidin-4-yl]-2,3-dihydro-1,4-benzodioxine-6-sulfonamide]: the EC50 was determined as 1.4 µM. For `CC(=O)Oc1ccc(-n2c(O)c3c(c2O)C2(C)C=CC3(C)O2)cc1` [MLS000107813], the 50% effective concentration (EC50) is 13.4 µM.

For `CCSc1nnc(NC(=O)C(Cc2ccccc2)n2cccc2)s1` (stereo not given) [MLS000119034], the EC50 is > 30 µM.

Take `COc1ccccc1-n1nnnc1S(=O)(=O)Cc1ccc(Cl)cc1` [5-(4-chlorobenzyl)sulfonyl-1-(2-methoxyphenyl)tetrazole]: the EC50 worked out at 3.77 µM. Turning to `COc1ccc(-c2nc(-c3ccccc3OC)no2)cc1OC` [5-(3,4-dimethoxyphenyl)-3-(2-methoxyphenyl)-1,2,4-oxadiazole], the EC50 turned out to be 0.139 µM.

As for `O=S(=O)(Nc1ccc2c(c1)OCCO2)c1ccc2oc3ccccc3c2c1` [MLS000051884], the EC50 amounted to 7.43 µM. Same read-out and setting: as for `O=C(CSC1=NCCS1)Nc1ccnc2ccccc12` [2-(4,5-dihydro-1,3-thiazol-2-ylsulfanyl)-N-quinolin-4-yl-ethanamide], the figure is 2.55 µM; as for `COCCn1c(C)cc(C(=O)CSc2nnc(-c3cccnc3)n2-c2ccccc2F)c1C` [2-[[4-(2-fluorophenyl)-5-(3-pyridinyl)-1,2,4-triazol-3-yl]thio]-1-[1-(2-methoxyethyl)-2,5-dimethyl-3-pyrrolyl]ethanone], 1.22 µM; as for `CC(C)c1cc(C(F)(F)F)n2nc(C(=O)Nc3ccc4c(c3)OCO4)cc2n1` [5-Isopropyl-7-trifluoromethyl-pyrazolo[1,5-a]pyrimidine-2-carboxylic acid benzo[1,3]dioxol-5-ylamide], 2.84 µM. In the case of `Cc1ccc2c(c1)N(CC(=O)Nc1ccc3c(c1)OCCO3)C(=O)CO2` [MLS000074457], the EC50 is > 95 µM. As to `OC(c1cccc(OCc2ccccc2)c1)c1nnc(-c2ccccc2)o1` (stereo not given) [(3-benzoxyphenyl)-(5-phenyl-1,3,4-oxadiazol-2-yl)methanol], the 50% effective concentration (EC50) was determined as 2.65 µM.

As for `CCn1nc(-c2ccccc2)nc2c(=O)n(C)c(=O)nc1-2` [1-Ethyl-6-methyl-3-phenyl-1H-pyrimido[5,4-e][1,2,4]triazine-5,7-dione], the EC50 amounted to 4.29 µM. Same read-out and setting: the figure for `CCN(CC)C(=O)CS/C(=N/C#N)Nc1ccccc1F` [2-[[N-cyano-N'-(2-fluorophenyl)amidino]thio]-N,N-diethyl-acetamide] is > 95 µM. Still for that read-out and setting: as for `OC1(c2cccc(C(F)(F)F)c2)CCN(c2ncnc3c2[nH]c2ccc(F)cc23)CC1` [1-(8-fluoranyl-5H-pyrimido[5,4-b]indol-4-yl)-4-[3-(trifluoromethyl)phenyl]piperidin-4-ol], the figure is 4.41 µM; as for `CCOC(=O)c1cnc(-n2nc(C)cc2C)nc1NC1CCCCC1` [4-(cyclohexylamino)-2-(3,5-dimethyl-1-pyrazolyl)-5-pyrimidinecarboxylic acid ethyl ester], 5.91 µM. On to `O=C(NCc1ccc2c(c1)OCO2)C1CC(=O)N(C2CCCCCCC2)C1` (stereo not given) [1-cyclooctyl-5-keto-N-piperonyl-pyrrolidine-3-carboxamide], for which the EC50 was > 95 µM. Still for that read-out and setting: as for `CCCc1ccc(Oc2c[nH]nc2-c2ccc(O)cc2O)cc1` [(4E)-3-hydroxy-4-[4-(4-propylphenoxy)-1,2-dihydropyrazol-3-ylidene]-1-cyclohexa-2,5-dienone], the figure is 18.2 µM. Still for that read-out and setting: as for `O=C(Nc1ccc(OC(F)F)c(Cl)c1)Nc1ccc2c(c1)OCO2` [1-(1,3-benzodioxol-5-yl)-3-[3-chloro-4-(difluoromethoxy)phenyl]urea], the figure is 8.5 µM. Same read-out and setting: the figure for `COC(=O)c1ccc2c(=O)n(C3CCCCC3)c(SCC#N)nc2c1` [2-(cyanomethylthio)-3-cyclohexyl-4-keto-quinazoline-7-carboxylic acid methyl ester] is 6.9 µM; for `c1ccc(CNc2ncnc3ccccc23)cc1` [N-benzylquinazolin-4-amine] it is 4.27 µM. On to `Cc1cc(NC(=O)c2oc3ccccc3c2C)ccc1-n1cnnn1` [3-Methyl-benzofuran-2-carboxylic acid (3-methyl-4-tetrazol-1-yl-phenyl)-amide], for which the EC50 stood at 5.53 µM. Same read-out and setting: as for `COc1ccc(-n2c(C)cc(C(=O)CSc3nnc(-c4cccs4)o3)c2C)cc1` [1-[1-(4-methoxyphenyl)-2,5-dimethyl-3-pyrrolyl]-2-[(5-thiophen-2-yl-1,3,4-oxadiazol-2-yl)thio]ethanone], the figure is 1.96 µM; as for `CCOC(=O)c1oc2cc(O)c(CC)cc2c(=O)c1-c1ccc2c(c1)OCCO2` [3-(2,3-dihydro-1,4-benzodioxin-6-yl)-6-ethyl-7-hydroxy-4-keto-chromene-2-carboxylic acid ethyl ester], > 10 µM. For `O=c1c(-c2ccc3c(c2)OCCO3)c(C(F)(F)F)oc2cc(O)cc(O)c12` [3-(2,3-dihydro-1,4-benzodioxin-6-yl)-5,7-bis(oxidanyl)-2-(trifluoromethyl)chromen-4-one], the EC50 was found to be 3.83 µM. Still for that read-out and setting: as for `CCOc1ccc(S(=O)(=O)N2CCN(c3ccc(C)cc3C)CC2)cc1` [1-(2,4-dimethylphenyl)-4-(4-ethoxyphenyl)sulfonyl-piperazine], the figure is > 95 µM; as for `Cc1cccc(N2CCN(C(=O)CSCc3c(C)noc3C)CC2)c1C` [2-[(3,5-dimethyl-1,2-oxazol-4-yl)methylsulfanyl]-1-[4-(2,3-dimethylphenyl)piperazin-1-yl]ethanone], 4.41 µM. Still for that read-out and setting: as for `COc1ccc(-c2nc(-c3ccncc3)no2)cc1OC` [5-(3,4-dimethoxyphenyl)-3-(4-pyridyl)-1,2,4-oxadiazole], the figure is 1.2 µM; as for `CCc1cc(-c2n[nH]cc2-c2ccc3c(c2)OCO3)c(O)cc1O` [SMR000060132], 6.57 µM. Still for that read-out and setting: as for `COc1ccc(S(=O)(=O)N2CCN(c3ccc(C)cc3C)CC2)cc1OC` [1-(3,4-dimethoxyphenyl)sulfonyl-4-(2,4-dimethylphenyl)piperazine], the figure is 7.77 µM; as for `Cc1nn(C(=O)c2cccs2)c(N)c1-c1ccccc1` [(5-amino-3-methyl-4-phenyl-1-pyrazolyl)-thiophen-2-ylmethanone], 4.9 µM.

Staying with this assay, now noted: inactive by the depositor's call.
`CC1CCN(S(=O)(=O)c2ccc3c(c2)oc(=O)n3CC(=O)NCc2ccc3c(c2)OCO3)CC1` [2-[2-keto-6-(4-methylpiperidino)sulfonyl-1,3-benzoxazol-3-yl]-N-piperonyl-acetamide]: the EC50 was 14.6 µM.

For `Cc1ccc(-c2nc(COC(=O)c3c(C)noc3C)cs2)cc1` [3,5-dimethyl-4-isoxazolecarboxylic acid [2-(4-methylphenyl)-4-thiazolyl]methyl ester], the EC50 was found to be 27.9 µM. Still for that read-out and setting: the figure for `O=C(c1cc(-c2ccccc2)on1)N1CCN(Cc2ccc3c(c2)OCO3)CC1` [(5-phenylisoxazol-3-yl)-(4-piperonylpiperazino)methanone] is 58.7 µM.

In the case of `Clc1ccc(-c2nc3nc4ccccc4nc3n2Cc2ccco2)cc1` [2-(4-chlorophenyl)-3-(2-furanylmethyl)imidazo[4,5-b]quinoxaline], the EC50 came to 16.6 µM.

On to `Cc1nn(Cc2ccccc2)c(C)c1C(=O)OCC(=O)c1cc(C)n(C2CC2)c1C` [1-benzyl-3,5-dimethyl-pyrazole-4-carboxylic acid [2-(1-cyclopropyl-2,5-dimethyl-pyrrol-3-yl)-2-keto-ethyl] ester], for which the 50% effective concentration (EC50) was found to be 15.6 µM. `CCN(CC)C(=O)Oc1ccc2c(=O)c(-c3ccccc3)coc2c1` [(4-oxidanylidene-3-phenyl-chromen-7-yl) N,N-diethylcarbamate]: the half-maximal effective concentration (EC50) was found to be 27.2 µM.

As for `O=C(CSCC(=O)N1CCCCC1)Nc1nc(-c2cccs2)cs1` [2-(2-oxidanylidene-2-piperidin-1-yl-ethyl)sulfanyl-N-(4-thiophen-2-yl-1,3-thiazol-2-yl)ethanamide], the EC50 is 45.2 µM. Take `Cc1ccc2nc(NC(=O)CSc3nc4c(c(=O)n3C)SC(C)C4)sc2c1` (stereo not given) [2-[(3,6-dimethyl-4-oxidanylidene-6,7-dihydrothieno[3,2-d]pyrimidin-2-yl)sulfanyl]-N-(6-methyl-1,3-benzothiazol-2-yl)ethanamide]: the EC50 worked out at 16.5 µM.

In the case of `Cc1ccccc1OCC(=O)Nc1ccc(N2CCN(C(=O)C(C)C)CC2)c(Cl)c1` [MLS000034491], the concentration for a half-maximal effect (EC50) stood at 15.2 µM. In the case of `C=CCOC(=O)c1[nH]c2c(c1C)C(=O)CC(c1cc(OC)c(OC)c(OC)c1)C2` (stereo not given) [SMR000093465], the EC50 is 11.1 µM. The same measure, in the same setting: the figure for `O=C1CC(N2CCN(C/C=C/c3ccccc3)CC2)C(=O)N1CCc1ccccc1` (stereo not given) [1-(2-phenylethyl)-3-[4-[(E)-3-phenylprop-2-enyl]-1-piperazinyl]pyrrolidine-2,5-dione] is 19.3 µM.

Regarding `CC(C)OCCCNc1ncnc2c1[nH]c1ccccc12` [MLS000041327], the 50% effective concentration (EC50) was 13.2 µM.

Take `Cn1nc(CC(=O)Nc2ccc(N3CCN(C(=O)OC(C)(C)C)CC3)cc2)c2ccccc2c1=O` [4-[4-[[2-(3-methyl-4-oxo-1-phthalazinyl)-1-oxoethyl]amino]phenyl]-1-piperazinecarboxylic acid tert-butyl ester]: the EC50 came out at 14.4 µM. On the same count and under the same terms, as for `COc1ccccc1-c1cc(C(=O)Nc2cc(C)nn2-c2ccccc2)no1` [5-(2-methoxyphenyl)-N-(3-methyl-1-phenyl-1H-pyrazol-5-yl)isoxazole-3-carboxamide], the figure is 57.7 µM.
